Measurements taken from paper PMC11117309.
Non-standard residues stand in square brackets, D forms with d. Residues, ends and D or L forms follow the SMILES beside them.

## CC[C@@H](C)[C@@H](NC(=O)[C@@H](C)NC(=O)[C@@H](CCC(=O)O)NC(=O)[C@H](NC(=O)[C@@H](CC(C)C)NC(=O)[C@@H](CCC(=O)O)NC(=O)CNC(=O)[C@@H](C)NC(=O)[C@@H](C)NC(=O)[C@@H](CC(C)C)NC(=O)[C@H](NC(=O)[C@@H](Cc1ccccc1)NC(=O)[C@@H](CC(C)C)NC(=O)[C@@H](CCC(=O)O)NC(=O)[C@@H](CC(C)C)NC(=O)[C@@H](Cc1ccccc1)NC(=O)[C@@H](C)NC(=O)[C@@H](CCCCN)NC(=O)CNC(=O)[C@H](N)CCCNC(=N)N)[C@H](C)CC)[C@H](C)CC)C(=O)N[C@H](CC(=O)O)C(=O)N[C@H](CCCNC(=N)N)C(=O)N[C@@H](C(=O)N[C@H](Cc1ccccc1)C(=O)N[C@@H](C(=O)NCC(=O)N[C@H](CCC(=O)O)C(=O)N[C@H](C)C(=O)N[C@H](Cc1c[nH]cn1)C(=O)O)[C@H](C)O)[C@H](C)O (H-[dR]G[dK][dA][dF][dL][dE][dL][dF][dI][dL][dA][dA]G[dE][dL][dI][dE][dA][dI][dD][dR][dT][dF][dT]G[dE][dA][dH]-OH)
  peptide remaining after proteinase K exposure: > 88%
